According to ChEMBL document CHEMBL4043292, “Discovery and Optimization of Phosphopantetheine Adenylyltransferase Inhibitors with Gram-Negative Antibacterial Activity” (J Med Chem, 2018):
≈ marks a conversion by molar mass, not a printed value.

How the values were obtained:
[1] = target: T1, Bifunctional coenzyme A synthase (Homo sapiens) (UniProt Q13057)
T1 sequence (whole entry): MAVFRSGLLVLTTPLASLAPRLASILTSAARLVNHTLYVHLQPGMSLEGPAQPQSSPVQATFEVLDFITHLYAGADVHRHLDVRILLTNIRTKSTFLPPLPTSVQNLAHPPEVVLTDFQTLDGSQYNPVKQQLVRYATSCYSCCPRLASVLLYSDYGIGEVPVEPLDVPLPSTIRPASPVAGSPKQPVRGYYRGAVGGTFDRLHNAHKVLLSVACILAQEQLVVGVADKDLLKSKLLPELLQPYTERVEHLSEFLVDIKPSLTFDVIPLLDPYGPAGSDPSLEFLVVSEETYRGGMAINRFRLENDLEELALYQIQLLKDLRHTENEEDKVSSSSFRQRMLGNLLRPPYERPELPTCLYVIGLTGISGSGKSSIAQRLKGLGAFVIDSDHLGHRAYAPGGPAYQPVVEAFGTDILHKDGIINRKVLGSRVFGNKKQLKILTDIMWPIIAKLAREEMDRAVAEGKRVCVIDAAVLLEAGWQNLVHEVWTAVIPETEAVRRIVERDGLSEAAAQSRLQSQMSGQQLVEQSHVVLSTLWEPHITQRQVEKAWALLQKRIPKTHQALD
Description: Inhibition of human coaSY expressed in tolC deficient Escherichia coli JWK0002 assessed as bacterial growth inhibition after 20 hrs by broth microdilution method

physchem [2] = details: buffer, pH 7.4
Description: Lipophilicity, log D of the compound at pH 7.4

physchem [3] = details: PBS
Description: Solubility of the compound in PBS

in vitro [4] = details: human, not told
Description: Efflux ratio in human microsomes

in vitro [5] = details: human, Caco-2
in vitro [6] = details: human, Caco-2; remark: listed apart in the source
Description: Efflux ratio of apparent permeability across basolateral to apical over apical to basolateral side in human Caco2 cells

Escherichia coli [7] = assay: microbe, parasite or virus in culture; details: JW5503-1, 20 h
Description: Antibacterial activity against tolC deficient Escherichia coli JW5503-1 after 20 hrs by broth microdilution method

Escherichia coli [8] = assay: microbe, parasite or virus in culture; details: BW25113, 20 h
Description: Antibacterial activity against Escherichia coli BW25113 after 20 hrs by broth microdilution method

Escherichia coli [9] = assay: microbe, parasite or virus in culture; details: JW0451-2, 20 h
Description: Antibacterial activity against acrB deficient Escherichia coli JW0451-2 after 20 hrs by broth microdilution method

Escherichia coli [10] = assay: microbe, parasite or virus in culture; details: RFM795, 20 h
Description: Antibacterial activity Escherichia coli RFM795 harboring frame deletion of 23 amino acids in lptD gene after 20 hrs by broth microdilution method

Pseudomonas aeruginosa [11] = assay: microbe, parasite or virus in culture; details: PAO1, 20 h
Description: Antibacterial activity against Pseudomonas aeruginosa PAO1 after 20 hrs by broth microdilution method

Pseudomonas aeruginosa [12] = assay: microbe, parasite or virus in culture; details: K1119, 20 h
Description: Antibacterial activity against mexAB deficient Pseudomonas aeruginosa K1119 after 20 hrs by broth microdilution method

[13] = Inhibition of PPAT in tolC deficient Escherichia coli JW5503-1 assessed as reduction in level of CoA-SH metabolite by mass spectrometric method
[14] = Inhibition of PPAT in Escherichia coli BW25113 assessed as reduction in level of CoA-SH metabolite by mass spectrometric method
Escherichia coli [15] = assay: Ratio of IC50 for PPAT in Escherichia coli BW25113 assessed as reduction in level of CoA-SH metabolite to IC50 for PPAT in tolC deficient Escherichia coli JW5503-1 assessed as reduction in level of CoA-SH metabolite
Pseudomonas aeruginosa [16] = assay: microbe, parasite or virus in culture; details: ATCC 35151, 20 h
Description: Antibacterial activity against Pseudomonas aeruginosa ATCC 35151 after 20 hrs by broth microdilution method

SMILES	MIC [1] [µg/mL]	logD (physchem [2])	solubility (physchem [3]) [µg/mL]	efflux ratio (in vitro [4])	Papp A→B (in vitro [5]) [×10⁻⁶ cm/s]	efflux ratio (in vitro [6])	MIC (Escherichia coli [7]) [µg/mL]	MIC (Escherichia coli [8]) [µg/mL]	MIC (Escherichia coli [9]) [µg/mL]	MIC (Escherichia coli [10]) [µg/mL]	MIC (Pseudomonas aeruginosa [11]) [µg/mL]	MIC (Pseudomonas aeruginosa [12]) [µg/mL]	IC50 [13] [nM]	IC50 [14] [µM]	Ratio IC50 (Escherichia coli [15])	MIC (Pseudomonas aeruginosa [16]) [µg/mL]
COC(=O)N1CCC(Cc2cccc([C@@H](CC#N)Nc3nc4nc(C)ccc4[nH]3)c2)CC1	128 (≈ 296 µM)	2.8	158 (≈ 365 µM)	0.77	2.3	18	≤ 0.125	128 (≈ 296 µM)	16 (≈ 37 µM)	2 (≈ 4.62 µM)	> 128	32 (≈ 74 µM)	–	–	–	–
COC(=O)N1CCC(Oc2cccc([C@@H](CC#N)Nc3nc4nc(C)ccc4[nH]3)c2)CC1	> 128	3	264 (≈ 608 µM)	0.44	1	48	0.25 (≈ 0.575 µM)	> 128	32 (≈ 73.6 µM)	8 (≈ 18.4 µM)	> 128	128 (≈ 295 µM)	24	11.9	500	128 (≈ 295 µM)
